{"source": "patent US20070128217A1", "about": "(priority 2003, published 2007)", "key": {"[1]": {"system": "rabbit serum obtained by immunizing a rabbit with the SARS-CoV strain Frankfurt 1", "type": "binding", "parameters": "Binding of a rabbit serum to linear peptides / Binding of a rabbit serum to looped peptides / Rabbit serum linear peptides / Rabbit serum looped peptides / Binding of a rabbit serum to linear peptides of protein N of SARS-CoV Urbani (Rabbit serum linear peptides) / Binding of a rabbit serum to looped/cyclic peptides of protein N of SARS-CoV Urbani (Rabbit serum looped peptides): unit not given here"}, "[2]": {"system": "antibodies in sera from SARS patients (sera 1a, 1b, 2, 6, 37, 62, London, SARS-yellow, SARS-green)", "type": "binding, human", "parameters": "Binding of serum 6 to linear peptides of protein X1 of SARS-CoV Urbani / Binding of serum 37 to linear peptides of protein X1 of SARS-CoV Urbani / Binding of serum 6 to looped/cyclic peptide (PEPSCAN-ELISA) / Binding of serum 37 to looped/cyclic peptide (PEPSCAN-ELISA) / Binding of serum 37 to looped/cyclic peptides of protein X1 of SARS-CoV Urbani / Binding of serum 6 to linear peptides of protein X2 / Binding of serum 37 to linear peptides of protein X2 / Binding of serum 37 to looped/cyclic peptides of protein X2 of SARS-CoV Urbani / Binding of serum 6 to linear peptides of protein M of SARS-CoV Urbani / Binding of serum 37 to linear peptides of protein M of SARS-CoV Urbani / Binding of serum 6 to looped/cyclic peptides of protein M of SARS-CoV Urbani / Binding of serum 37 to looped/cyclic peptides of protein M of SARS-CoV Urbani / Binding of serum 6 to linear peptides of protein X3 of SARS-CoV Urbani / Binding of serum 37 to linear peptides of protein X3 of SARS-CoV Urbani / Binding of serum 37 to looped/cyclic peptides of protein X3 of SARS-CoV Urbani / Binding of serum 6 to linear peptides of protein X4 of SARS-CoV Urbani / Binding of serum 37 to linear peptides of protein X4 of SARS-CoV Urbani / Binding of serum 37 to looped/cyclic peptides of protein X4 of SARS-CoV Urbani / Binding of serum 6 to linear peptides of protein X5 of SARS-CoV Urbani / Binding of serum 37 to linear peptides of protein X5 of SARS-CoV Urbani / Binding of serum 37 to looped/cyclic peptides of protein X5 of SARS-CoV Urbani / Binding of serum 6 to linear peptides of protein N of SARS-CoV Urbani / Binding of serum 37 to linear peptides of protein N of SARS-CoV Urbani / Binding of serum 6 to linear peptide (PEPSCAN-ELISA) / Binding of serum 1a to looped/cyclic peptides of protein N of SARS-CoV Urbani / Binding of serum 1b to looped/cyclic peptides of protein N of SARS-CoV Urbani / Binding of serum 2 to looped/cyclic peptides of protein N of SARS-CoV Urbani / Binding of serum 6 to looped/cyclic peptides of protein N of SARS-CoV Urbani / Binding of serum 37 to looped/cyclic peptides of protein N of SARS-CoV Urbani / Binding of serum 62 to looped/cyclic peptides of protein N of SARS-CoV Urbani / Binding of serum London to looped/cyclic peptides of protein N of SARS-CoV Urbani / Binding of serum SARS-green to looped/cyclic peptides of protein N of SARS-CoV Urbani: unit not given here"}, "[3]": {"system": "control sera (pooled serum of ten healthy LUMC hospital workers; commercial negative donor pooled serum from the Dutch bloodbank)", "type": "binding, human", "parameters": "Binding of Control serum LUMC to linear peptides / Binding of Control serum Blood-bank to linear peptides / Binding of Control serum LUMC to looped peptides / Binding of Control Serum Blood-Bank to Looped peptides / Binding of Control serum LUMC to linear peptides of the protein M of SARS-CoV Urbani / Binding of Control serum Blood-bank to linear peptides of the protein M of SARS-CoV Urbani / Binding of Control serum LUMC to looped peptides of the protein M of SARS-CoV Urbani / Binding of Control Serum Blood-Bank to Looped peptides of the protein M of SARS-CoV Urbani: unit not given here"}}, "data": [{"sequence": "KVTAFQHQNSKKTTK", "values": [{"measurement": "Binding of a rabbit serum to linear peptides", "setting": "[1]", "result": 0.6}, {"measurement": "Binding of a rabbit serum to looped peptides", "setting": "[1]", "result": 0.2}, {"measurement": "Binding of serum 1a to linear peptides of protein X2", "setting": "[2]", "result": 0.3}, {"measurement": "Binding of serum 1a to looped/cyclic peptides of protein X2 of SARS-CoV Urbani", "setting": "[2]", "result": 0.2}, {"measurement": "Binding of serum 1b to linear peptides of protein X2", "setting": "[2]", "result": 0.2}, {"measurement": "Binding of serum 1b to looped/cyclic peptides of protein X2 of SARS-CoV Urbani", "setting": "[2]", "result": 0.2}, {"measurement": "Binding of serum 2 to linear peptides of protein X2", "setting": "[2]", "result": 0.2}, {"measurement": "Binding of serum 2 to looped/cyclic peptides of protein X2 of SARS-CoV Urbani", "setting": "[2]", "result": 0.0}, {"measurement": "Binding of serum 6 to linear peptides of protein X2", "setting": "[2]", "result": 0.2}, {"measurement": "Binding of serum 6 to looped/cyclic peptides of protein X2 of SARS-CoV Urbani", "setting": "[2]", "result": 0.0}, {"measurement": "Binding of serum 37 to linear peptides of protein X2", "setting": "[2]", "result": 0.3}, {"measurement": "Binding of serum 37 to looped/cyclic peptides of protein X2 of SARS-CoV Urbani", "setting": "[2]", "result": 0.2}, {"measurement": "Binding of serum 62 to linear peptides of protein X2", "setting": "[2]", "result": 0.2}, {"measurement": "Binding of serum 62 to looped/cyclic peptides of protein X2 of SARS-CoV Urbani", "setting": "[2]", "result": 0.3}, {"measurement": "Binding of serum London to linear peptides of protein X2", "setting": "[2]", "result": 0.1}, {"measurement": "Binding of serum London to looped/cyclic peptides of protein X2 of SARS-CoV Urbani", "setting": "[2]", "result": 0.1}, {"measurement": "Binding of serum SARS-green to linear peptides of protein X2", "setting": "[2]", "result": 0.0}, {"measurement": "Binding of serum SARS-green to looped/cyclic peptides of protein X2 of SARS-CoV Urbani", "setting": "[2]", "result": 0.0}, {"measurement": "Binding of serum SARS-yellow to linear peptides of protein X2", "setting": "[2]", "result": 0.4}, {"measurement": "Binding of serum SARS-yellow to looped/cyclic peptides of protein X2 of SARS-CoV Urbani", "setting": "[2]", "result": 0.1}, {"measurement": "Binding of Control Serum Blood-Bank to Looped peptides", "setting": "[3]", "result": 0.3}, {"measurement": "Binding of Control serum Blood-bank to linear peptides", "setting": "[3]", "result": 0.2}, {"measurement": "Binding of Control serum LUMC to linear peptides", "setting": "[3]", "result": 0.3}, {"measurement": "Binding of Control serum LUMC to looped peptides", "setting": "[3]", "result": 0.3}]}, {"sequence": "LSYFVASFRLFARTR", "values": [{"measurement": "Rabbit serum linear peptides", "setting": "[1]", "result": 0.4}, {"measurement": "Rabbit serum looped peptides", "setting": "[1]", "result": 0.6}, {"measurement": "Binding of serum 1a to linear peptides of protein M of SARS-CoV Urbani", "setting": "[2]", "result": 0.7}, {"measurement": "Binding of serum 1b to linear peptides of protein M of SARS-CoV Urbani", "setting": "[2]", "result": 0.4}, {"measurement": "Binding of serum 2 to linear peptides of protein M of SARS-CoV Urbani", "setting": "[2]", "result": 0.4}, {"measurement": "Binding of serum 6 to linear peptides of protein M of SARS-CoV Urbani", "setting": "[2]", "result": 0.4}, {"measurement": "Binding of serum 37 to linear peptides of protein M of SARS-CoV Urbani", "setting": "[2]", "result": 0.6}, {"measurement": "Binding of serum 62 to linear peptides of protein M of SARS-CoV Urbani", "setting": "[2]", "result": 0.7}, {"measurement": "Binding of serum London to linear peptides of protein M of SARS-CoV Urbani", "setting": "[2]", "result": 0.3}, {"measurement": "Binding of serum SARS-green to linear peptides of protein M of SARS-CoV Urbani", "setting": "[2]", "result": 0.2}, {"measurement": "Binding of serum SARS-yellow to linear peptides of protein M of SARS-CoV Urbani", "setting": "[2]", "result": 0.1}, {"measurement": "Recognition of the peptide by sera of SARS-CoV infected individuals, and form (linear, looped/cyclic) in which it is recognized", "setting": "[2]", "result": "recognized in looped/cyclic form"}, {"measurement": "Binding of Control Serum Blood-Bank to Looped peptides of the protein M of SARS-CoV Urbani", "setting": "[3]", "result": 0.8}, {"measurement": "Binding of Control serum Blood-bank to linear peptides of the protein M of SARS-CoV Urbani", "setting": "[3]", "result": 0.6}, {"measurement": "Binding of Control serum LUMC to linear peptides of the protein M of SARS-CoV Urbani", "setting": "[3]", "result": 0.3}, {"measurement": "Binding of Control serum LUMC to looped peptides of the protein M of SARS-CoV Urbani", "setting": "[3]", "result": 1.0}]}, {"sequence": "KLLQTLVLKMLHSSS", "values": [{"measurement": "Binding of a rabbit serum to linear peptides", "setting": "[1]", "result": 0.2}, {"measurement": "Binding of a rabbit serum to looped peptides", "setting": "[1]", "result": 0.4}, {"measurement": "Binding of serum 1a to linear peptides of protein X2", "setting": "[2]", "result": 0.6}, {"measurement": "Binding of serum 1a to looped/cyclic peptides of protein X2 of SARS-CoV Urbani", "setting": "[2]", "result": 0.5}, {"measurement": "Binding of serum 1b to linear peptides of protein X2", "setting": "[2]", "result": 0.6}, {"measurement": "Binding of serum 1b to looped/cyclic peptides of protein X2 of SARS-CoV Urbani", "setting": "[2]", "result": 0.5}, {"measurement": "Binding of serum 2 to linear peptides of protein X2", "setting": "[2]", "result": 0.4}, {"measurement": "Binding of serum 2 to looped/cyclic peptides of protein X2 of SARS-CoV Urbani", "setting": "[2]", "result": 0.3}, {"measurement": "Binding of serum 6 to linear peptides of protein X2", "setting": "[2]", "result": 0.3}, {"measurement": "Binding of serum 6 to looped/cyclic peptides of protein X2 of SARS-CoV Urbani", "setting": "[2]", "result": 0.5}, {"measurement": "Binding of serum 37 to linear peptides of protein X2", "setting": "[2]", "result": 0.5}, {"measurement": "Binding of serum 37 to looped/cyclic peptides of protein X2 of SARS-CoV Urbani", "setting": "[2]", "result": 0.4}, {"measurement": "Binding of serum 62 to linear peptides of protein X2", "setting": "[2]", "result": 0.6}, {"measurement": "Binding of serum 62 to looped/cyclic peptides of protein X2 of SARS-CoV Urbani", "setting": "[2]", "result": 0.6}, {"measurement": "Binding of serum London to linear peptides of protein X2", "setting": "[2]", "result": 0.4}, {"measurement": "Binding of serum London to looped/cyclic peptides of protein X2 of SARS-CoV Urbani", "setting": "[2]", "result": 0.4}, {"measurement": "Binding of serum SARS-green to linear peptides of protein X2", "setting": "[2]", "result": 0.5}, {"measurement": "Binding of serum SARS-green to looped/cyclic peptides of protein X2 of SARS-CoV Urbani", "setting": "[2]", "result": 0.3}, {"measurement": "Binding of serum SARS-yellow to linear peptides of protein X2", "setting": "[2]", "result": 0.4}, {"measurement": "Binding of serum SARS-yellow to looped/cyclic peptides of protein X2 of SARS-CoV Urbani", "setting": "[2]", "result": 0.4}, {"measurement": "Binding of Control Serum Blood-Bank to Looped peptides", "setting": "[3]", "result": 0.7}, {"measurement": "Binding of Control serum Blood-bank to linear peptides", "setting": "[3]", "result": 0.7}, {"measurement": "Binding of Control serum LUMC to linear peptides", "setting": "[3]", "result": 0.3}, {"measurement": "Binding of Control serum LUMC to looped peptides", "setting": "[3]", "result": 0.6}]}]}
